Measured values taken from patent US20170119851A1, “METHODS OF TREATING ANOREXIA” (NOVARTIS AG, priority 2014, published 2017).
No end group written: not given here.

Legend:
in vivo [1] = conditions: male, C57BL, mouse, plasma, 57 ug
Description: Male C57BL mice were housed one per cage with normal chow diet and housed in normal light cycle (light on 6:00-18:00).
10 min prior to the treatment, tail blood samples were taken and plasma (10 μl) was obtained. […] After being dosed, the mice remained in the isoflurane chamber for 2 min before placed back in their home cages. […] Tail blood samples were taken at 2, 5, 10, 30 min and 1, 2, 4 and 24 h post dose. Plasma samples were aliquoted and stored at −80° C. until analysis.

[2] = test system: lean Sprague Dawley (SD) rats; assay: Food intake after intranasal AgRP in lean rats; type: in vivo
Description: The purpose of the following study was to determine if intranasal—(IN) administered AgRP would stimulate food intake in lean Sprague Dawley (SD) rats.
8-12 week-old male SD rats were housed one per cage with a standard chow diet and normal light cycle.
One and two days prior to dosing, 24 h food intake and body weight were measured. Animals were grouped based on body weight and food intake. […] Animals were actively sniffing when compound was administered. After dosing, rats were returned to their home cages. A pre-weighed amount of food was given to the animals after dosing. Food weight was recorded at 4 and 24 hours post dose.
All data were analyzed using an unpaired t-test comparing saline and AgRP. A p value of <0.05 or lower was taken to be statistically significant. All data were analyzed and plotted using GraphPad Prism6 software (San Diego, Calif.).

C57BL mice [3] = assay: Food intake after subcutaneous (SC) AgRP in mice; type: in vivo; conditions: 57 μg AgRP
Description: One day prior to treatment, 4-h food intake was measured and animals grouped to match group means of food intake. On the day of the study, animals were dosed via SC injection between 10:30 to 11:00 am. Pre-weighed food was provided to the mice prior to the dark cycle (11:00 am). At 4 and 24 h post dose food intake was measured.
All data were analyzed using an unpaired t-test comparing PBS and AgRP in saline. A p value of <0.05 or lower was taken to be statistically significant. All data were analyzed and plotted using GraphPad Prism6 software (San Diego, Calif.).

C57BL mice [4] = assay: Food intake after intranasal (IN) AgRP in mice; type: in vivo; conditions: 57 μg AgRP in saline
Description: One day prior to treatment, 4-h food intake was measured and animals grouped to match group means of food intake. On the day of the study, food was removed at 9:00 am. […] After dosing, the mice remained in the isoflurane chamber in a supine position for 3 min before being returned to their cages. A pre-weighed amount of food was given to the animals before the dark cycle. Food weight was recorded at 4 and 24 hours post dose.
All data were analyzed using an unpaired t-test comparing saline and AgRP in saline. A p value of <0.05 or lower was taken to be statistically significant. All data were analyzed and plotted using GraphPad Prism6 software (San Diego, Calif.).

MC4R [5] = biological target: T1, MC4R (Homo sapiens, UniProt P32245); assay: HTRF cAMP assay, HEK293/MC4R stable cell line; type: cell-based; conditions: HEK293/MC4R cells, titration against NDP-aMSH
T1 construct: expressed in transfected cells; host or cells: HEK293
T1 sequence (P32245 whole entry, species assumed): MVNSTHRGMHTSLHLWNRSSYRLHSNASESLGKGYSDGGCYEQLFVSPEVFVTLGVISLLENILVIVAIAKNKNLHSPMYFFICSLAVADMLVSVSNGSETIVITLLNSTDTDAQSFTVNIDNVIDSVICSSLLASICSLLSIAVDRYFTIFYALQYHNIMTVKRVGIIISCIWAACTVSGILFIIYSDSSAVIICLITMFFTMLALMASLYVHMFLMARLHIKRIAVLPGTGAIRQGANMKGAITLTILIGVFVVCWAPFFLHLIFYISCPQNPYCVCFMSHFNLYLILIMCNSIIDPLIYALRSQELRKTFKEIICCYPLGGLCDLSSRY
Description: A) HTRF cAMP Assay Protocol:
• Flash spindown the 384 well plate at 1200 RPM • Incubated the cells for 15 minutes at an ambient temperature • Add 10 μL of the following reagents into each well based on your sample alignment
• Flash spindown the 384 well plate at 1200 RPM • Incubate the cells for an additional 30 minutes at an ambient temperature • *This incubation time is not so strict. +/−5 min should be OK according to assay development data. • Add 10 μL of cAMP-d2 (diluted 1:4 in the lysis buffer provided in the kit) • *Important!! For Negative control, not cAMP-d2, but just the lysis buffer • Add 10 μL of anti-cAMP Cryptate (diluted 1:4 in the lysis buffer provided in the kit) • Flash spindown at 1200 RPM. • Incubate the assay plate for 45-60 min at an ambient temperature. • Transfer […] of each sample to a tissue culture treated white polystyrene 384-well assay plate (Corning, Cat. No. 3572) • Flash spindown at 1200 RPM. • Measure the fluorescence with a Molecular device M5 or M5e with the following setting.

MC3R [6] = biological target: T2, MC3R (Homo sapiens, UniProt P41968); assay: MC3 cAMP assay, HEK293/MC3R stable cell line (antagonist protocol); type: cell-based; conditions: HEK293/MC3R cells, antagonist protocol against NDP-α-MSH EC80
T2 construct: expressed in transfected cells; host or cells: HEK293
T2 sequence (P41968 whole entry, species assumed): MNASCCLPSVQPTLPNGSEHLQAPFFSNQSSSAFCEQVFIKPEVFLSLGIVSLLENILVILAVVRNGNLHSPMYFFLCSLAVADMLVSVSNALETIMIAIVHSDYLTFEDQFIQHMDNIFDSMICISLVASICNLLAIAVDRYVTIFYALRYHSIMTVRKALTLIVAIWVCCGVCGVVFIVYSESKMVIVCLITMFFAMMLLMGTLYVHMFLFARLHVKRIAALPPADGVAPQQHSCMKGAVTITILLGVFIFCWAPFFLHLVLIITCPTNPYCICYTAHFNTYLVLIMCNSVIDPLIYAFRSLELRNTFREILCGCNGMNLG
Description: Cells: HEK293/MC3R stable cell line Complete medium: DMEM/F12 1:1 (Gibco, Cat. No. 11039) • 10% FBS (Heat inactivated, Gibco, Cat. No. 10082)× • 200 μg/mL Geneticin (Gibco, Cat. No. 10131) • 2 mM L-glutamine (GIBCO, Cat No. 25030) Flask: 150 cm^2 tissue culture treated flask (Corning, Cat. No. 430825).
• I. Aspirate conditioned medium • II. Wash with 2.5 mL of DPBS (Gibco, Cat. No. 14190) • III. Add 2 mL of 0.25% Trypsin-EDTA (Gibco, Cat. No. 25200-056) • IV. Leave the flask for few minutes in incubator, tap the flask a few time to detach cells. • V. Add 10 mL of the complete medium to stop Trypsin-EDTA treatment and mix it well by pipetting softly a few times to re-suspend clumping cells • VI. Transfer 1.5 ml of cells into a new 150 cm flask containing 20 ml of complete media • VII. Transfer the remaining suspension into a 50 mL centrifuge tube • VIII. Spin down at 1200 rpm for 4 mins. Aspirate supernatant • IX. Add 6 mL of the assay buffer to the tube and re-suspend the cells by softly pipetting • X. Transfer 0.5 mL of the suspension into a sample vial for Vi-cell and add another 0.5 ml of PBS. • XI. Count cell number by using a Vi-cell *Record cell density and viability every time • i. Plate cells at 4K/well in 10 ul/well of assay buffer containing IBMX. • ii. Leave the plate in incubator for ˜30 mins before assay is started on suspension cells. […]

in vivo [7] = conditions: male, Sprague-Dawley, rat, plasma, iv, 10 nanomoles per rat
Description: C) In Vivo Assay Description:
10 nanomoles of conjugate was dissolved in 300 L of PBS (Phosphate buffered saline) to form Dosing solution. Dosing solution (300 M) was administered intravenously to male Sprague-Dawley rats via lateral tail vein (corresponding to a dose 10 nanomoles per rat). Blood was collected via tail snip at prescribed times after dosing and immediately placed on wet ice. These samples were centrifuged at 4 C, with supernatant plasma transferred to a fresh tube for analysis.
For assay, intermediates were diluted to a top standard concentration of 2500 pg/mL and then diluted 2-fold serially to 16 points including a zero dose standard in ELISA sample diluent with bovine serum albumin (BSA).
Plasma samples were diluted 10-fold and then 5-fold serially out to 31,250-fold in ELISA sample diluent with BSA.
Plates were aspirated and blocked with a milk-based blocker at 90 uL/well for 2 hours at RT. All further incubations were carried out at 30 uL/well. Plates were aspirated again and samples and standards were added to the wells for 2 hours at RT. […] The plates were washed again and a HRP-labeled streptavidin reagent was added to the wells for 30 minutes at RT. Plates were washed a final time and a chemiluminescent substrate was added to all wells and plates were read immediately on a Spectramx M5 for light output.
Raw data was organized and analyzed for basic PK parameters.

MC3R and MC4R = conditions: Jackson et al., Biochemistry 41, 7565-7572; cited from earlier work
MC3R [8] = biological target: T2, MC3R; conditions: Jackson et al., Biochemistry 41, 7565-7572; cited from earlier work
MC4R [9] = biological target: T1, MC4R; conditions: Jackson et al., Biochemistry 41, 7565-7572; cited from earlier work

Compound	EC50 (MC4R [5])	EC50 (MC3R [6])	half-life (in vivo [7])	inverse agonism compared with AgRP(83-132) (MC3R and MC4R)	MC3R affinity compared with AgRP(83-132) (MC3R [8])	MC4R affinity compared with AgRP(83-132) (MC4R [9])	further results
CSCC[C@@H]1NC(=O)[C@H](C)NC(=O)[C@H]([C@@H](C)O)NC(=O)CNC(=O)[C@H](CC(C)C)NC(=O)[C@H](CCCCN)NC(=O)[C@H](CCCNC(=N)N)NC(=O)[C@@H]2CSSC[C@@H]3NC(=O)[C@@H]4CCCN4C(=O)[C@H](C(C)C)NC(=O)[C@H](CCC(N)=O)NC(=O)[C@H](CCC(N)=O)NC(=O)CNC(=O)[C@H](CC(C)C)NC(=O)[C@@H]4CSSC[C@H](NC(=O)[C@H]([C@@H](C)O)NC(=O)[C@H](C)NC(=O)[C@H](CSSC[C@@H](C(=O)N[C@@H](CO)C(=O)N[C@@H](CCCNC(=N)N)C(=O)N[C@H](C(=O)O)[C@@H](C)O)NC(=O)[C@@H]5CCCN5C(=O)[C@H](CC(N)=O)NC1=O)NC(=O)[C@@H]1CCCN1C(=O)[C@H](CC(=O)O)NC(=O)[C@H](CSSC[C@H](NC(=O)[C@H](CCCNC(=N)N)NC(=O)[C@H](CCCNC(=N)N)NC(=O)[C@H](CO)NC(=O)[C@@H](N)CO)C(=O)N[C@@H](C(C)C)C(=O)N[C@@H](CCCNC(=N)N)C(=O)N[C@@H](CC(C)C)C(=O)N[C@@H](Cc1c[nH]cn1)C(=O)N[C@@H](CCC(=O)O)C(=O)N[C@@H](CO)C(=O)N4)NC3=O)C(=O)N[C@@H](Cc1ccc(O)cc1)C(=O)N[C@H]1CSSC[C@H](NC(=O)[C@H](Cc3ccccc3)NC(=O)[C@H](C)NC(=O)[C@H](CC(N)=O)NC(=O)[C@H](Cc3ccccc3)NC(=O)[C@H](Cc3ccccc3)NC(=O)[C@H](CCCNC(=N)N)NC1=O)C(=O)N[C@@H](Cc1ccc(O)cc1)C(=O)N2 [AgRP, Agouti-Related Peptide]	–	–	–	–	–	–	Cmax (in vivo [1]; other: intranasal (IN)): 97.6 ng/mL; Tmax (in vivo [1]; other: intranasal (IN)): 1 h; Cmax (in vivo [1]; sc): 2810 ng/mL; Tmax (in vivo [1]; sc): 0.5 h; food intake vs saline (unpaired t-test) ([2]; 57 μg AgRP, 24 h post dose): significant increase; food intake vs saline (unpaired t-test) ([2]; 171 μg AgRP, 4 h post dose): significant effect; food intake vs saline (unpaired t-test) ([2]; 171 μg AgRP, 24 h post dose): significant increase; food intake vs PBS (unpaired t-test) (C57BL mice [3]; 4 h post dose): did not resulted in a significant effect; food intake vs PBS (unpaired t-test) (C57BL mice [3]; 24 h post dose): did not resulted in a significant effect; food intake vs saline (unpaired t-test) (C57BL mice [4]; 4 h post dose): significant effect; food intake vs saline (unpaired t-test) (C57BL mice [4]; 24 h post dose): significant effect
CCCCCCCCCCCC(CCCCCCCCCCC(=O)O)(C(=O)O)C(=O)NCCOCCOCCOCCOCCOCCOCCOCCOCCOCCOCCOCCOCCOCCOCCOCCOCCOCCOCCOCCOCCOCCOCCOCCOCCC(=O)N[C@@H](CO)C(=O)N[C@@H](CO)C(=O)N[C@@H](CCCNC(=N)N)C(=O)N[C@@H](CCCNC(=N)N)C(=O)N[C@H]1CSSC[C@@H]2NC(=O)[C@@H]3CSSC[C@@H]4NC(=O)[C@H](Cc5ccc(O)cc5)NC(=O)[C@@H]5CSSC[C@H](NC(=O)[C@H](Cc6ccc(O)cc6)NC(=O)[C@H](CSSC[C@H](NC(=O)[C@H](CO)NC(=O)[C@H](CCC(=O)O)NC(=O)[C@H](Cc6c[nH]cn6)NC(=O)[C@H](CC(C)C)NC(=O)[C@H](CCCNC(=N)N)NC(=O)[C@H](C(C)C)NC1=O)C(=O)N[C@@H](CC(C)C)C(=O)NCC(=O)N[C@@H](CCC(N)=O)C(=O)N[C@@H](CCC(N)=O)C(=O)N[C@@H](C(C)C)C(=O)N1CCC[C@H]1C(=O)N3)NC(=O)[C@H]([C@@H](C)O)NC(=O)[C@H](C)NC(=O)[C@H](CSSC[C@@H](C(=O)N[C@@H](CO)C(=O)N[C@@H](CCCNC(=N)N)C(=O)N[C@H](C(=O)O)[C@@H](C)O)NC(=O)[C@@H]1CCCN1C(=O)[C@H](CC(N)=O)NC(=O)[C@H](CCSC)NC(=O)[C@H](C)NC(=O)[C@H]([C@@H](C)O)NC(=O)CNC(=O)[C@H](CC(C)C)NC(=O)[C@H](CCCCN)NC(=O)[C@H](CCCNC(=N)N)NC4=O)NC(=O)[C@@H]1CCCN1C(=O)[C@H](CC(=O)O)NC2=O)C(=O)N[C@@H](CCCNC(=N)N)C(=O)N[C@@H](Cc1ccccc1)C(=O)N[C@@H](Cc1ccccc1)C(=O)N[C@@H](CC(N)=O)C(=O)N[C@@H](C)C(=O)N[C@@H](Cc1ccccc1)C(=O)N5 (some centres unmarked) [Example 5A]	18 nM	7 nM	20 h	–	–	–	–
CCCCCCCCCCCC(CCCCCCCCCCC(=O)O)(C(=O)O)C(=O)NCCOCCOCCOCCOCCOCCOCCOCCOCCOCCOCCOCCOCCOCCOCCOCCOCCOCCOCCOCCOCCOCCOCCOCCOCCC(=O)NCCCC[C@@H]1NC(=O)[C@H](CCCNC(=N)N)NC(=O)[C@@H]2CSSC[C@@H]3NC(=O)[C@@H]4CCCN4C(=O)[C@H](C(C)C)NC(=O)[C@H](CCC(N)=O)NC(=O)[C@H](CCC(N)=O)NC(=O)CNC(=O)[C@H](CC(C)C)NC(=O)[C@@H]4CSSC[C@H](NC(=O)[C@H]([C@@H](C)O)NC(=O)[C@H](C)NC(=O)[C@H](CSSC[C@@H](C(=O)N[C@@H](CO)C(=O)N[C@@H](CCCNC(=N)N)C(=O)N[C@H](C(=O)O)[C@@H](C)O)NC(=O)[C@@H]5CCCN5C(=O)[C@H](CC(N)=O)NC(=O)[C@H](CCSC)NC(=O)[C@H](C)NC(=O)[C@H]([C@@H](C)O)NC(=O)CNC(=O)[C@H](CC(C)C)NC1=O)NC(=O)[C@@H]1CCCN1C(=O)[C@H](CC(=O)O)NC(=O)[C@H](CSSC[C@H](NC(=O)[C@H](CCCNC(=N)N)NC(=O)[C@H](CCCNC(=N)N)NC(=O)[C@H](CO)NC(=O)[C@H](CO)NC(=O)CCOCCOCCOCCOCCOCCOCCOCCOCCOCCOCCOCCOCCOCCOCCOCCOCCOCCOCCOCCOCCOCCOCCOCCOCCNC(=O)C(CCCCCCCCCCC)(CCCCCCCCCCC(=O)O)C(=O)O)C(=O)N[C@@H](C(C)C)C(=O)N[C@@H](CCCNC(=N)N)C(=O)N[C@@H](CC(C)C)C(=O)N[C@@H](Cc1c[nH]cn1)C(=O)N[C@@H](CCC(=O)O)C(=O)N[C@@H](CO)C(=O)N4)NC3=O)C(=O)N[C@@H](Cc1ccc(O)cc1)C(=O)N[C@H]1CSSC[C@H](NC(=O)[C@H](Cc3ccccc3)NC(=O)[C@H](C)NC(=O)[C@H](CC(N)=O)NC(=O)[C@H](Cc3ccccc3)NC(=O)[C@H](Cc3ccccc3)NC(=O)[C@H](CCCNC(=N)N)NC1=O)C(=O)N[C@@H](Cc1ccc(O)cc1)C(=O)N2 (some centres unmarked) [Example 5B]	167 nM	65 nM	52 h	–	–	–	–
AgRP (87-120): shorter biologically active fragment of AgRP described in Jackson et al. (CVRLHESCLGQQVPCCDPCATCYCRFFNAFCYCR; also: disulfide pairing of this fragment not given here, 9 Cys (C105 partner C129 absent))	–	–	–	equivalent inverse agonism	approximately the same	approximately the same	–
AgRP(87-132): shorter biologically active fragment of AgRP described in Jackson et al.	–	–	–	equivalent inverse agonism	approximately the same	approximately the same	–
